Experimental data reported in ChEMBL document CHEMBL1201862, “PubChem BioAssay data set” (2004).
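Grown in 96-well plates, cells were treated for 48 hours with each compound at five concentrations. Insufficient inhibition: endpoint recorded as highest concentration tested. GI50 = concentration required for 50% inhibition of growth.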 Calls of active or inactive are those of the source. No stated cut-off is given here; in the data, active = GI50 up to about 1.1 µM and inactive = higher.

Tests used:
Assay in all cases: NCI anticancer screen, dose series, 48 h
OVCAR-4 = system: OVCAR-4
NCI-H460 = system: NCI-H460
SF-268 = system: SF-268
MOLT-4 = system: MOLT-4
DLD-1 = system: DLD-1
SF-539 = system: SF-539
NCI-H23 = system: NCI-H23
SN12C = system: SN12C
DMS-273 = system: DMS-273
COLO 205 = system: COLO 205
NCI-H522 = system: NCI-H522
HOP-92 = system: HOP-92
M14 = system: M14
CAKI-1 = system: CAKI-1
SNB-75 = system: SNB-75
IGROV-1 = system: IGROV-1
OVCAR-5 = system: OVCAR-5
UO-31 = system: UO-31
OVCAR-8 = system: OVCAR-8
U-251 = system: U-251
Malme-3M = system: Malme-3M
SK-MEL-2 = system: SK-MEL-2
KM-20L2 = system: KM-20L2
RXF 393 = system: RXF 393
HT-29 = system: HT-29
A498 = system: A498
RPMI-8226 = system: RPMI-8226
CCRF-CEM = system: CCRF-CEM
LXFL 529 = system: LXFL 529
M19-MEL = system: M19-MEL
SK-MEL-28 = system: SK-MEL-28
HL-60 = system: HL-60
786-0 = system: 786-0
ACHN = system: ACHN
UACC-257 = system: UACC-257
EKVX = system: EKVX
SNB-19 = system: SNB-19
LOX IMVI = system: LOX IMVI
UACC-62 = system: UACC-62
HOP-18 = system: HOP-18
HCT-15 = system: HCT-15
SW-620 = system: SW-620
RXF 631 = system: RXF 631
TK-10 = system: TK-10
SK-OV-3 = system: SK-OV-3
A549 = system: A549
K562 = system: K562
SNB-78 = system: SNB-78
NCI-H226 = system: NCI-H226
SR = system: SR
SK-MEL-5 = system: SK-MEL-5
OVCAR-3 = system: OVCAR-3
HCC 2998 = system: HCC 2998
HOP-62 = system: HOP-62
HCT-116 = system: HCT-116
SF-295 = system: SF-295
DMS-114 = system: DMS-114

O=C(O)CN(c1ccccc1)S(=O)(=O)c1ccc(Cl)cc1
GI50 (OVCAR-4): > 100 µM (inactive) | GI50 (NCI-H460): > 100 µM (inactive) | GI50 (SF-268): > 100 µM (inactive) | GI50 (MOLT-4): > 100 µM (inactive) | GI50 (DLD-1): > 100 µM (inactive) | GI50 (SF-539): > 100 µM (inactive) | GI50 (NCI-H23): > 100 µM (inactive) | GI50 (SN12C): > 100 µM (inactive) | GI50 (DMS-273): > 100 µM (inactive) | GI50 (COLO 205): > 100 µM (inactive) | GI50 (NCI-H522): > 100 µM (inactive) | GI50 (HOP-92): > 100 µM (inactive) | GI50 (M14): > 100 µM (inactive) | GI50 (CAKI-1): > 100 µM (inactive) | GI50 (SNB-75): 59 µM (inactive) | GI50 (IGROV-1): > 100 µM (inactive) | GI50 (OVCAR-5): > 100 µM (inactive) | GI50 (UO-31): > 100 µM (inactive) | GI50 (OVCAR-8): > 100 µM (inactive) | GI50 (U-251): > 100 µM (inactive) | GI50 (Malme-3M): > 100 µM (inactive) | GI50 (SK-MEL-2): > 100 µM (inactive) | GI50 (KM-20L2): > 100 µM (inactive) | GI50 (RXF 393): > 100 µM (inactive) | GI50 (HT-29): > 100 µM (inactive) | GI50 (A498): > 100 µM (inactive) | GI50 (RPMI-8226): > 100 µM (inactive) | GI50 (CCRF-CEM): > 100 µM (inactive) | GI50 (LXFL 529): > 100 µM (inactive) | GI50 (M19-MEL): > 100 µM (inactive) | GI50 (SK-MEL-28): > 100 µM (inactive) | GI50 (HL-60): > 100 µM (inactive) | GI50 (786-0): > 100 µM (inactive) | GI50 (ACHN): > 100 µM (inactive) | GI50 (UACC-257): > 100 µM (inactive) | GI50 (EKVX): > 100 µM (inactive) | GI50 (SNB-19): > 100 µM (inactive) | GI50 (LOX IMVI): > 100 µM (inactive) | GI50 (UACC-62): > 100 µM (inactive) | GI50 (HOP-18): > 100 µM (inactive) | GI50 (HCT-15): > 100 µM | GI50 (SW-620): > 100 µM (inactive) | GI50 (RXF 631): > 100 µM (inactive) | GI50 (TK-10): > 100 µM (inactive) | GI50 (SK-OV-3): > 100 µM (inactive) | GI50 (A549): > 100 µM (inactive) | GI50 (K562): > 100 µM (inactive)

CCC12CCC[C@@]13C=C[C@H](O3)C(C)(C)C2=O (some centres undefined)
GI50 (OVCAR-4): > 100 µM (inactive) | GI50 (NCI-H460): > 100 µM (inactive) | GI50 (SF-268): > 100 µM (inactive) | GI50 (SNB-78): > 100 µM (inactive) | GI50 (MOLT-4): > 100 µM (inactive) | GI50 (DLD-1): > 100 µM (inactive) | GI50 (SF-539): > 100 µM (inactive) | GI50 (NCI-H23): > 100 µM (inactive) | GI50 (SN12C): > 100 µM (inactive) | GI50 (NCI-H226): > 100 µM (inactive) | GI50 (DMS-273): > 100 µM (inactive) | GI50 (NCI-H522): > 100 µM (inactive) | GI50 (M14): > 100 µM (inactive) | GI50 (CAKI-1): > 100 µM (inactive) | GI50 (SR): > 100 µM (inactive) | GI50 (SNB-75): > 100 µM (inactive) | GI50 (IGROV-1): > 100 µM (inactive) | GI50 (SK-MEL-5): > 100 µM (inactive) | GI50 (OVCAR-5): > 100 µM (inactive) | GI50 (UO-31): > 100 µM (inactive) | GI50 (OVCAR-3): > 100 µM (inactive) | GI50 (OVCAR-8): > 100 µM (inactive) | GI50 (U-251): > 100 µM (inactive) | GI50 (Malme-3M): > 100 µM (inactive) | GI50 (SK-MEL-2): > 100 µM (inactive) | GI50 (KM-20L2): > 100 µM (inactive) | GI50 (RXF 393): > 100 µM (inactive) | GI50 (HT-29): > 100 µM (inactive) | GI50 (HCC 2998): > 100 µM (inactive) | GI50 (RPMI-8226): > 100 µM (inactive) | GI50 (CCRF-CEM): > 100 µM (inactive) | GI50 (LXFL 529): > 100 µM (inactive) | GI50 (M19-MEL): > 100 µM (inactive) | GI50 (HL-60): > 100 µM (inactive) | GI50 (HOP-62): > 100 µM (inactive) | GI50 (ACHN): > 100 µM (inactive) | GI50 (UACC-257): > 100 µM (inactive) | GI50 (EKVX): > 100 µM (inactive) | GI50 (HCT-116): > 100 µM (inactive) | GI50 (SNB-19): > 100 µM (inactive) | GI50 (LOX IMVI): > 100 µM (inactive) | GI50 (UACC-62): > 100 µM (inactive) | GI50 (HOP-18): > 100 µM (inactive) | GI50 (HCT-15): > 100 µM | GI50 (SW-620): > 100 µM (inactive) | GI50 (RXF 631): > 100 µM (inactive) | GI50 (SF-295): > 100 µM (inactive) | GI50 (TK-10): > 100 µM (inactive) | GI50 (DMS-114): > 100 µM (inactive) | GI50 (SK-OV-3): > 100 µM (inactive) | GI50 (A549): > 100 µM (inactive) | GI50 (K562): > 100 µM (inactive)
